# Source: patent publication US20240150322A1, “CDK9 Inhibitors” (Biolexis Therapeutics, Inc., priority 2022, published 2024)
# How the values were obtained:
# Experiment in all cases: P450 isozyme inhibition assay (baculosomes)
# Type in all cases: in vitro ADME
# human P450 isozyme 3A4 = biological target: T1, human P450 isozyme 3A4 (Homo sapiens, UniProt P08684); conditions: P450 3A4
# T1 construct: made in house; host or cells: insect cells infected with recombinant baculovirus
# Procedure: (§1) P450 baculosome reagents (i.e., microsomes), were prepared from insect cells infected with recombinant baculovirus containing a human P450 isozyme and a rabbit NAPDH-P450 reductase since only a single P450 isozyme is expressed over human liver microsomes (HLM).
# human P450 isozyme 2D6 = biological target: T2, human P450 isozyme 2D6 (Homo sapiens, UniProt P10635); conditions: P450 2D6
# T2 construct: made in house; host or cells: insect cells infected with recombinant baculovirus
# Procedure: as §1
# human P450 isozyme 1A2 = biological target: T3, human P450 isozyme 1A2 (Homo sapiens, UniProt P05177); conditions: P450 1A2
# T3 construct: host or cells: insect cells infected with recombinant baculovirus
# Procedure: as §1
# human P450 isozyme 2C9 = biological target: T4, human P450 isozyme 2C9 (Homo sapiens, UniProt P11712); conditions: P450 2C9
# T4 construct: host or cells: insect cells infected with recombinant baculovirus
# Procedure: as §1
# human P450 isozyme 2C19 = biological target: T5, human P450 isozyme 2C19 (Homo sapiens, UniProt P33261); conditions: P450 2C19
# T5 construct: host or cells: insect cells infected with recombinant baculovirus
# Procedure: as §1
# T1 sequence (P08684 whole entry): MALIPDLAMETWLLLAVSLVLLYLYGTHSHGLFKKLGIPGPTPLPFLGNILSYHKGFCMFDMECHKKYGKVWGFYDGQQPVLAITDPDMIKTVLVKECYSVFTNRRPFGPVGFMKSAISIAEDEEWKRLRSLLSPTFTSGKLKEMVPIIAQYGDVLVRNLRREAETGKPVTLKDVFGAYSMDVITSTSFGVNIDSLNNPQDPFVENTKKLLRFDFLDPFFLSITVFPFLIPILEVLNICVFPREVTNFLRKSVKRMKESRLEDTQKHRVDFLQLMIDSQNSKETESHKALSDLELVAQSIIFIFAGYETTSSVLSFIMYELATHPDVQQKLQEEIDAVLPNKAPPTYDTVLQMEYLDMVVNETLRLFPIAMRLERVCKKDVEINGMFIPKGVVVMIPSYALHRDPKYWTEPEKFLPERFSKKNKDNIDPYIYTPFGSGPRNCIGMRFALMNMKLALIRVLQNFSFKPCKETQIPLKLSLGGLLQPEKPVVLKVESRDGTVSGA
# T2 sequence (P10635 whole entry): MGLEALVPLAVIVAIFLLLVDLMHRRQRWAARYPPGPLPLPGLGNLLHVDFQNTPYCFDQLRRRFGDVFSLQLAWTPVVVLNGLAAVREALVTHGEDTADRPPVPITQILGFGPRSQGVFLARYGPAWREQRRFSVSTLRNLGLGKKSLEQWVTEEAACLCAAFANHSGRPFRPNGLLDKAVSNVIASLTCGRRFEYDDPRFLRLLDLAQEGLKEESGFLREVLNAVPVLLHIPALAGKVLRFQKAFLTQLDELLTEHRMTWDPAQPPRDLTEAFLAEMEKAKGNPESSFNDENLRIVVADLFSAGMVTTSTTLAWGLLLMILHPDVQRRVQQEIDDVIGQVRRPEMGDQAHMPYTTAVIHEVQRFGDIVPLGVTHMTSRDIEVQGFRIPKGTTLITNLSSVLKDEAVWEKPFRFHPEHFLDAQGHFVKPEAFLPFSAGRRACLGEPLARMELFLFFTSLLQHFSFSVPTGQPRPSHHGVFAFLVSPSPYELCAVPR
# T3 sequence (P05177 whole entry): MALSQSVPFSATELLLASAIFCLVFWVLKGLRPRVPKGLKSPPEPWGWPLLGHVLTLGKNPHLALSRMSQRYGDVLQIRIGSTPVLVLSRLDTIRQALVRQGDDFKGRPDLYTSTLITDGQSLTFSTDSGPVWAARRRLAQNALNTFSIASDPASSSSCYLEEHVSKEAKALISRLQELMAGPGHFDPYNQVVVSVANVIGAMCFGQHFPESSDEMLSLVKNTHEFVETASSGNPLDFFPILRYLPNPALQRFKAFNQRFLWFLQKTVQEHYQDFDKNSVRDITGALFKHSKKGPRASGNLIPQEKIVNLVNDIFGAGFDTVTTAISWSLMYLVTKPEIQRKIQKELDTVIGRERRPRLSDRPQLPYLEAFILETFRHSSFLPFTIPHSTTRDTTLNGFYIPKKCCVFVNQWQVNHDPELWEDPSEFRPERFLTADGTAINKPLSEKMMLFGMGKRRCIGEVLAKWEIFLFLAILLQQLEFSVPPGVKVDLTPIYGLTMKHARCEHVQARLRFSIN
# T5 sequence (P33261 whole entry): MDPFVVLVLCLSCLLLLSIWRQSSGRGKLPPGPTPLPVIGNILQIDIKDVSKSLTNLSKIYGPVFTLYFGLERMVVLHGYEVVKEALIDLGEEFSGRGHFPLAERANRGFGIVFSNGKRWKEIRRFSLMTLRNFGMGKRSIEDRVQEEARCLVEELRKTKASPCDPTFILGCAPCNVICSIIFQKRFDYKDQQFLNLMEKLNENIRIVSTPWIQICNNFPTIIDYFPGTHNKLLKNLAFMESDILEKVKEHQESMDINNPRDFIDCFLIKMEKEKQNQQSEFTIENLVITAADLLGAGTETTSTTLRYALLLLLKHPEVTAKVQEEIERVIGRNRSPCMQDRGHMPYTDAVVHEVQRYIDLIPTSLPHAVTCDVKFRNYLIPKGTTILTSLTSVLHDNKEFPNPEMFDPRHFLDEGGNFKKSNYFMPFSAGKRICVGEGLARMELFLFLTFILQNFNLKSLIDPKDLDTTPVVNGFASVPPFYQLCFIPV
# T4 sequence (P11712 whole entry): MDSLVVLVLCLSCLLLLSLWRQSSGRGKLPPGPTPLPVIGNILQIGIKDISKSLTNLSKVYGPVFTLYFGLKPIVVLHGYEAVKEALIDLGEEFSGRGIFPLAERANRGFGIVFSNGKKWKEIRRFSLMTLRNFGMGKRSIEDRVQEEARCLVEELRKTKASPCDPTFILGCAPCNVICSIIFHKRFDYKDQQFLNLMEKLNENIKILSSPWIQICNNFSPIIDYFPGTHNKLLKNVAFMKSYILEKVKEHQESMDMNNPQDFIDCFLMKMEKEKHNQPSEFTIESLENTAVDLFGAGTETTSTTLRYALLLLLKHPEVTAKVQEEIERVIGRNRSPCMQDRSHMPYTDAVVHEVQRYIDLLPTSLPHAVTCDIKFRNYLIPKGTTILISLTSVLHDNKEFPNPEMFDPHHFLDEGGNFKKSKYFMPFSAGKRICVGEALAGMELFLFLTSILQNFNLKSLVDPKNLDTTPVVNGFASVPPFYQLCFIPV
smiles,measurement,setting,value
"CC(C)c1c2cc(-c3ccnc(N[C@H]4CC[C@H](N)C4)n3)ccc2nn1C [Compound I-2, (1S,3S)-[3-[4-(3-isopropyl-2-methylindazol-5-yl)pyrimidin-2-yl]aminocyclopentan-1-yl]-1,3-diamine]",IC50,human P450 isozyme 3A4,31.1 µM
same,IC50,human P450 isozyme 2D6,100 µM
same,IC50,human P450 isozyme 1A2,29.4 µM
same,IC50,human P450 isozyme 2C9,50.8 µM
same,IC50,human P450 isozyme 2C19,28.3 µM
